# Results: ChEMBL document CHEMBL1909046, “DrugMatrix in vitro pharmacology data”
# How the values were obtained:
# [1] = target: T1, Substance-K receptor (Homo sapiens, UniProt P21452); format: cell membranes, CHO, Membrane; note: in other assays of this panel Not Active means under 50% inhibition at 10 µM
# T1 sequence (P21452 whole entry): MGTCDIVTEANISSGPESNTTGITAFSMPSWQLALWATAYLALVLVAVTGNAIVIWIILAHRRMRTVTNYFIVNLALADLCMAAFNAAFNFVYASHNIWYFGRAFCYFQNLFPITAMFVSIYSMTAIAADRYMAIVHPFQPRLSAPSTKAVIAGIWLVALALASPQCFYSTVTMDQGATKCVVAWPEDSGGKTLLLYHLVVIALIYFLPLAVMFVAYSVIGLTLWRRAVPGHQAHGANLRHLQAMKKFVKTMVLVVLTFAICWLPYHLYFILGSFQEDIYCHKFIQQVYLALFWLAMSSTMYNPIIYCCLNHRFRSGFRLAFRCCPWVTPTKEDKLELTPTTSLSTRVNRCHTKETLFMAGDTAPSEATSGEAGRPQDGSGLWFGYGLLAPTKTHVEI
# [2] = DRUGMATRIX: Interleukin IL-1 radioligand binding (ligand: [125I] interleukin 1beta); format: cell membranes, Membrane; conditions: nih3t3; Not Active = under 50% inhibition at 10 µM
# [3] = target: T2, Amine oxidase [flavin-containing] A (Homo sapiens, UniProt P21397); test: DRUGMATRIX: Monoamine Oxidase MAO-A enzyme inhibition (substrate: Kynuramine); parameters: species or system BTI-TN-5B1-4; conditions: Not Active = under 50% inhibition at 10 µM
# T2 sequence (P21397 whole entry): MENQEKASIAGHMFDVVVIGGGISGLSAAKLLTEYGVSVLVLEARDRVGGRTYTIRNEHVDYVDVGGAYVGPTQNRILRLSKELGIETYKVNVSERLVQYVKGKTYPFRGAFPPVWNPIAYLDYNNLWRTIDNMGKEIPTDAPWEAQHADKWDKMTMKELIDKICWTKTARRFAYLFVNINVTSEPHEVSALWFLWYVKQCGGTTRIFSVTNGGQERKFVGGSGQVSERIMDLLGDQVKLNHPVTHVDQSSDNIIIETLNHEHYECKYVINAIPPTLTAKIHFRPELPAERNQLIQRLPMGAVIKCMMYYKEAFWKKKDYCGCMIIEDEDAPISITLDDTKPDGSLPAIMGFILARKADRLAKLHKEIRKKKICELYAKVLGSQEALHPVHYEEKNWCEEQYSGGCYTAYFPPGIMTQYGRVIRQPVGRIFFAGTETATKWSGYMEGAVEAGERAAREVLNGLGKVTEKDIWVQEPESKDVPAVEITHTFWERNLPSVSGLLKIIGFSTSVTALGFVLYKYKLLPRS
# [4] = target: Epidermal growth factor receptor (Homo sapiens, UniProt P00533); test: DRUGMATRIX: Protein Tyrosine Kinase, EGF Receptor enzyme inhibition (substrate: Poly(Glu:Tyr)); format: cell-based, Insect cells; conditions: Not Active = under 50% inhibition at 10 µM
# [5] = target: T3, Androgen receptor (Rattus norvegicus, UniProt P15207); note: in other assays of this panel Not Active means under 50% inhibition at 10 µM
# T3 sequence (P15207 whole entry): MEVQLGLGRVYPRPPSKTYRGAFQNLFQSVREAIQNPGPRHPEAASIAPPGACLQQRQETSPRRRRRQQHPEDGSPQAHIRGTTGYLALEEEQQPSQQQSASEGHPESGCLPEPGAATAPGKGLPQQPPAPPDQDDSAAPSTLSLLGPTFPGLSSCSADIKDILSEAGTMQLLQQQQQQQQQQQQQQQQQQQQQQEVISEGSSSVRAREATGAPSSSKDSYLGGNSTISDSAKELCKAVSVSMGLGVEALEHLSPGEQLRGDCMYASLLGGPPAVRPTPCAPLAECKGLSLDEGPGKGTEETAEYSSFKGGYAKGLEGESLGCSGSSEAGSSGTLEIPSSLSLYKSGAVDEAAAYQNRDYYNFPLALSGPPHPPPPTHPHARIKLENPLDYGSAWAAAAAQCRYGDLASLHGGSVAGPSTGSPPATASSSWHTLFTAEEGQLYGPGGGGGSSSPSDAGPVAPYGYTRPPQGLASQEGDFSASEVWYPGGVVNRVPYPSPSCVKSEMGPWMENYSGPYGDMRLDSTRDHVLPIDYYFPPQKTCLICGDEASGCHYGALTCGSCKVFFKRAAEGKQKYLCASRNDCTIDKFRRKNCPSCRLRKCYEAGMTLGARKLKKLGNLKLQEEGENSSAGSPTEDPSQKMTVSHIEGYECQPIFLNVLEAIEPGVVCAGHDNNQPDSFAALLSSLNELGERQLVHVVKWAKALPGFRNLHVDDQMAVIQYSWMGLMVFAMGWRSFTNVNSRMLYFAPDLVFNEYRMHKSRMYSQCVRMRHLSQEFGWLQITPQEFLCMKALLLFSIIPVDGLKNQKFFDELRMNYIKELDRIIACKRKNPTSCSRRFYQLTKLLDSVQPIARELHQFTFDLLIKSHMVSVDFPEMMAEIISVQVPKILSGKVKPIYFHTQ
Compound,IC50 ([1]; cho),Ki ([1]; cho),IC50 [2],Ki [2],IC50 ([3]; bti-tn-5b1-4),Ki ([3]; bti-tn-5b1-4),"IC50 ([4]; insect cells, read-out: IC50) [µM]",IC50 [5],Ki [5],IC50 ([4]; insect cells),Ki ([4]; insect cells),IC50 ([1]; read-out: IC50) [µM],Ki ([1]; read-out: Ki) [µM],IC50 ([3]; read-out: IC50) [µM],IC50 ([4]; read-out: IC50) [µM]
CHROMIC CHLORIDE,Not Active,Not Active,Not Active,Not Active,Not Active,Not Active,2.96,Not Active,Not Active,–,–,–,–,–,–
COc1ccccc1OCCNCC(O)COc1cccc2[nH]c3ccccc3c12 (centres undefined) [CARVEDILOL],Not Active,–,Not Active,Not Active,Not Active,–,–,Not Active,–,Not Active,–,–,–,–,–
CCN1CCN(c2cc3c(cc2F)c(=O)c(C(=O)O)cn3C2CC2)CC1 [ENROFLOXACIN],Not Active,–,Not Active,Not Active,Not Active,–,–,Not Active,–,Not Active,–,–,–,–,–
POVIDONE,Not Active,Not Active,Not Active,Not Active,Not Active,Not Active,–,Not Active,Not Active,Not Active,Not Active,–,–,–,–
"C=C(Cl)Cl [1,1-DICHLOROETHENE]",Not Active,–,Not Active,Not Active,Not Active,–,–,Not Active,–,Not Active,–,–,–,–,–
CC(=O)[C@]1(O)Cc2c(O)c3c(c(O)c2[C@@H](O[C@H]2C[C@H](N)[C@H](O)[C@H](C)O2)C1)C(=O)c1ccccc1C3=O [IDARUBICIN],Not Active,–,Not Active,Not Active,Not Active,–,–,Not Active,–,Not Active,–,–,–,–,–
C[N+](C)(C)CCOC(N)=O.[Cl-] [CARBACHOL],Not Active,–,Not Active,Not Active,Not Active,–,–,Not Active,–,Not Active,–,–,–,–,–
COPPER(II) OXIDE,Not Active,Not Active,Not Active,Not Active,Not Active,Not Active,–,Not Active,Not Active,Not Active,Not Active,–,–,–,–
CCO [ALCOHOL],Not Active,–,Not Active,Not Active,Not Active,–,–,Not Active,–,Not Active,–,–,–,–,–
O=C(O)CNCP(=O)(O)O [GLYPHOSATE],Not Active,–,Not Active,Not Active,Not Active,–,–,Not Active,–,Not Active,–,–,–,–,–
CC(C)Cn1cnc2c(N)nc3ccccc3c21 [IMIQUIMOD],Not Active,–,Not Active,Not Active,Not Active,–,–,Not Active,–,Not Active,–,–,–,–,–
C[N+](C)(C)CCOP(=O)([O-])OC[C@H](O)CO,Not Active,–,Not Active,Not Active,Not Active,–,–,Not Active,–,Not Active,–,–,–,–,–
Cl.NC[C@H]1CC[C@H](C(=O)Oc2ccc(CCC(=O)O)cc2)CC1 [CETRAXATE HYDROCHLORIDE],Not Active,–,Not Active,Not Active,Not Active,–,–,–,–,Not Active,–,–,–,–,–
Nc1nc(F)nc2c1ncn2[C@@H]1O[C@H](CO)[C@@H](O)[C@@H]1O [FLUDARABINE],Not Active,–,Not Active,Not Active,Not Active,–,–,–,–,Not Active,–,–,–,–,–
C=CCO [ALLYL ALCOHOL],Not Active,–,Not Active,Not Active,Not Active,–,–,–,–,Not Active,–,–,–,–,–
COC(=O)Nc1nc2ccc(Sc3ccccc3)cc2[nH]1 [FENBENDAZOLE],Not Active,–,Not Active,Not Active,Not Active,–,–,–,–,Not Active,–,–,–,–,–
C#C[C@]1(O)CC[C@H]2[C@@H]3CCC4=CC(=O)CC[C@@H]4[C@H]3CC[C@@]21C [NORETHINDRONE],Not Active,–,Not Active,Not Active,Not Active,–,–,–,–,Not Active,–,–,–,–,–
"O=C(Nc1ccc(Cl)c(Cl)c1)c1cc(Cl)cc(Cl)c1O [3,3',4',5-TETRACHLOROSALICYLANILIDE]",Not Active,–,Not Active,Not Active,Not Active,–,–,–,–,Not Active,–,–,–,–,–
CCN(CCO)CCCC(C)Nc1ccnc2cc(Cl)ccc12 (centres undefined) [HYDROXYCHLOROQUINE],Not Active,–,Not Active,Not Active,Not Active,–,–,–,–,Not Active,–,–,–,–,–
CC1(COc2ccc(CC3SC(=O)NC3=O)cc2)CCCCC1 (centres undefined) [CIGLITAZONE],–,–,Not Active,Not Active,–,–,–,–,–,–,–,12.6,4.19,29.2,4.66
O=c1[nH]cnc2c1ncn2[C@H]1CC[C@@H](CO)O1 [DIDANOSINE],Not Active,–,Not Active,Not Active,Not Active,–,–,–,–,Not Active,–,–,–,–,–
O=C(O)CO [GLYCOLIC ACID],Not Active,–,Not Active,Not Active,Not Active,–,–,–,–,Not Active,–,–,–,–,–
CC(C)Cc1ccc([C@H](C)C(=O)O)cc1 [DEXIBUPROFEN],Not Active,–,Not Active,Not Active,Not Active,–,–,–,–,Not Active,–,–,–,–,–
CC(C)(C#N)c1cc(Cn2cncn2)cc(C(C)(C)C#N)c1 [ANASTROZOLE],Not Active,–,Not Active,Not Active,Not Active,–,–,–,–,Not Active,–,–,–,–,–
O=C1c2ccccc2C(=O)C1c1ccccc1 [PHENINDIONE],Not Active,–,Not Active,Not Active,Not Active,–,–,–,–,Not Active,–,–,–,–,–
NC(=O)NC(=O)Cc1ccccc1 [PHENACEMIDE],Not Active,–,Not Active,Not Active,Not Active,–,–,–,–,Not Active,–,–,–,–,–
O=C(NCCN1CCOCC1)c1ccc(Cl)cc1 [MOCLOBEMIDE],Not Active,–,Not Active,Not Active,Not Active,–,–,–,–,Not Active,–,–,–,–,–
OC[C@H]1O[C@@H]2O[C@H]3[C@H](O)[C@@H](O)[C@@H](O[C@H]4[C@H](O)[C@@H](O)[C@@H](O[C@H]5[C@H](O)[C@@H](O)[C@@H](O[C@H]6[C@H](O)[C@@H](O)[C@@H](O[C@H]7[C@H](O)[C@@H](O)[C@@H](O[C@H]1[C@H](O)[C@H]2O)O[C@@H]7CO)O[C@@H]6CO)O[C@@H]5CO)O[C@@H]4CO)O[C@@H]3CO [ALFADEX],Not Active,–,Not Active,Not Active,Not Active,–,–,–,–,Not Active,–,–,–,–,–
ClC1=C(Cl)[C@]2(Cl)[C@@H]3[C@@H]4C[C@@H]([C@H]5O[C@@H]45)[C@@H]3[C@@]1(Cl)C2(Cl)Cl [DIELDRIN],Not Active,–,Not Active,Not Active,Not Active,–,–,–,–,Not Active,–,–,–,–,–
CCC1(c2ccccc2)C(=O)NC(=O)NC1=O [PHENOBARBITAL],Not Active,–,Not Active,Not Active,Not Active,–,–,–,–,Not Active,–,–,–,–,–
